Experimental data published in US10329299B2, “Heterocyclic compounds and uses thereof” (Infinity Pharmaceuticals, Inc., priority 2013, dated 2019).

Columns and labels:
PI3K-γ = PI3K-γ (Mus musculus (Mouse), UniProt Q9JHG7); assay: PI3K-γ selective cellular assay: phospho-AKT in C5a stimulated RAW264.7 macrophages; format: cell-based; details: ratio of RAJI p110 δ assay IC50 to Raw264.7 p110 γ assay IC50
From the text: Cells can be treated with test compounds prior to, simultaneously with, or subsequent to the stimulation by C5a.

[1] = target: γ isoform of human Class I PI3 kinases (Homo sapiens (Human), UniProt P48736); assay: PI3-Kinase Promega ADP-Glo Max assay, γ isoform; format: biochemical; details: for PI3K δ/PI3K γ IC50 (selectivity): ratio of PI3K δ IC50 to PI3K γ IC50
Procedure: (§1) Promega ADP-Glo Max assay kit (Cat. No. V7002) was utilized to determine IC50 values for α, β, δ and γ isoforms of human Class I PI3 kinases (Millipore). […] Reactions were incubated at room temperature for 2 hours followed by addition of 25 uL of stop solution. After a 40-minute incubation at room temperature, 50 uL of Promega detection mix was added followed by incubation for 1 hour at room temperature. Plates were then read on Envision plate reader in lunimescence mode. Data was converted to % inhibition using the following equation below:
(§2) [formula] where S is the sample luminescence, Pos is a positive control without added PI3K, Neg is the negative control without added compound. Data was then plotted as % inhibition vs compound concentration.

PI3K/Akt/mTOR signaling = assay: Kinase signaling in blood (phosflow); format: cell-based; details: unfractionated splenocytes or peripheral blood mononuclear cells stimulated with anti-CD3
Procedure: PI3K/Akt/mTOR signaling is measured in blood cells using the phosflow method (Methods Enzymol. (2007) 434:131-54). This method is by nature a single cell assay so that cellular heterogeneity can be detected rather than population averages. This allows concurrent distinction of signaling states in different populations defined by other markers. Phosflow is also highly quantitative. To test the effects of one or more compounds provided herein, unfractionated splenocytes, or peripheral blood mononuclear cells are stimulated with anti-CD3 to initiate T-cell receptor signaling. The cells are then fixed and stained for surface markers and intracellular phosphoproteins. […]
Similarly, aliquots of whole blood are incubated for 15 minutes with vehicle (e.g., 0.1% DMSO) or kinase inhibitors at various concentrations, before addition of stimuli to crosslink the T cell receptor (TCR) (anti-CD3 with secondary antibody) or the B cell receptor (BCR) using anti-kappa light chain antibody (Fab′2 fragments). […] The level of phosphorylation of kinase substrates such as Akt and S6 are then measured by incubating the fixed cells with labeled antibodies specific to the phosphorylated isoforms of these proteins. The population of cells are then analyzed by flow cytometry.

[2] = target: δ isoform of human Class I PI3 kinases (Homo sapiens (Human), UniProt O00329); assay: PI3-Kinase Promega ADP-Glo Max assay, δ isoform; format: biochemical; details: read-out: PI3K δ IC50
Procedure: as §1, §2

[3] = target: α isoform of human Class I PI3 kinases (Homo sapiens (Human), UniProt P42336); assay: PI3-Kinase Promega ADP-Glo Max assay, α isoform; format: biochemical; details: read-out: PI3K α IC50
Procedure: as §1, §2

[4] = target: β isoform of human Class I PI3 kinases (Homo sapiens (Human), UniProt P42338); assay: PI3-Kinase Promega ADP-Glo Max assay, β isoform; format: biochemical; details: read-out: PI3K β IC50
Procedure: as §1, §2

Chain of PI3K-γ (Q9JHG7 whole entry, canonical isoform): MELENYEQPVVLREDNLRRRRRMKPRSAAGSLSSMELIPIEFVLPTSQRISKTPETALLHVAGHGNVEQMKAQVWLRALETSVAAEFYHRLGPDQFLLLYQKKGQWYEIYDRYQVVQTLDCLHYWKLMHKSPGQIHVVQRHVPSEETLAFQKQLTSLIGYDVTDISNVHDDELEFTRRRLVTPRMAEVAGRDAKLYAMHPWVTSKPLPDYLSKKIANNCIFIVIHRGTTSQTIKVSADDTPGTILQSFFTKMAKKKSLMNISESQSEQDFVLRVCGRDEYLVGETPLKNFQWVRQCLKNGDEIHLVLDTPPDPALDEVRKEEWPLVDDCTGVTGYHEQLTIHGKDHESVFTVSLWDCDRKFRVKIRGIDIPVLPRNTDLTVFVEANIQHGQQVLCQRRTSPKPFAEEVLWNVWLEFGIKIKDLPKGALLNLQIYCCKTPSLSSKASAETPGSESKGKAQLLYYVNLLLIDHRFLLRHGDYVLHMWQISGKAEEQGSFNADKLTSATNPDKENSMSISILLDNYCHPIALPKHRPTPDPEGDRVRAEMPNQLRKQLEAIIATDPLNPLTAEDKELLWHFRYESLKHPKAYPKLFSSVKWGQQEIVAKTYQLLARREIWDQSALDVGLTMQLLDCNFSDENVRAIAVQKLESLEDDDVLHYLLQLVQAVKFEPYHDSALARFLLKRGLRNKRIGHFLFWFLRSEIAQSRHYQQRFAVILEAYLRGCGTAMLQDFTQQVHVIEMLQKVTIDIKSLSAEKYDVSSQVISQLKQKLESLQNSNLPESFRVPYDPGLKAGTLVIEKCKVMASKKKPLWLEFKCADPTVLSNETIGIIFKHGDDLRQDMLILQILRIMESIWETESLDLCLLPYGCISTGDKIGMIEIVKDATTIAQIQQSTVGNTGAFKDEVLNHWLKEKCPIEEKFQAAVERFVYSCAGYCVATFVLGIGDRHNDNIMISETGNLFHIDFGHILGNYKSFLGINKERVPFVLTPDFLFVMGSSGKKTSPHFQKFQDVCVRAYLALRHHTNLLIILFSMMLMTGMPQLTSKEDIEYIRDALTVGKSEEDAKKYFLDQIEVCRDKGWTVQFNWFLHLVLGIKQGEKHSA
Chain of γ isoform of human Class I PI3 kinases (P48736 whole entry, canonical isoform): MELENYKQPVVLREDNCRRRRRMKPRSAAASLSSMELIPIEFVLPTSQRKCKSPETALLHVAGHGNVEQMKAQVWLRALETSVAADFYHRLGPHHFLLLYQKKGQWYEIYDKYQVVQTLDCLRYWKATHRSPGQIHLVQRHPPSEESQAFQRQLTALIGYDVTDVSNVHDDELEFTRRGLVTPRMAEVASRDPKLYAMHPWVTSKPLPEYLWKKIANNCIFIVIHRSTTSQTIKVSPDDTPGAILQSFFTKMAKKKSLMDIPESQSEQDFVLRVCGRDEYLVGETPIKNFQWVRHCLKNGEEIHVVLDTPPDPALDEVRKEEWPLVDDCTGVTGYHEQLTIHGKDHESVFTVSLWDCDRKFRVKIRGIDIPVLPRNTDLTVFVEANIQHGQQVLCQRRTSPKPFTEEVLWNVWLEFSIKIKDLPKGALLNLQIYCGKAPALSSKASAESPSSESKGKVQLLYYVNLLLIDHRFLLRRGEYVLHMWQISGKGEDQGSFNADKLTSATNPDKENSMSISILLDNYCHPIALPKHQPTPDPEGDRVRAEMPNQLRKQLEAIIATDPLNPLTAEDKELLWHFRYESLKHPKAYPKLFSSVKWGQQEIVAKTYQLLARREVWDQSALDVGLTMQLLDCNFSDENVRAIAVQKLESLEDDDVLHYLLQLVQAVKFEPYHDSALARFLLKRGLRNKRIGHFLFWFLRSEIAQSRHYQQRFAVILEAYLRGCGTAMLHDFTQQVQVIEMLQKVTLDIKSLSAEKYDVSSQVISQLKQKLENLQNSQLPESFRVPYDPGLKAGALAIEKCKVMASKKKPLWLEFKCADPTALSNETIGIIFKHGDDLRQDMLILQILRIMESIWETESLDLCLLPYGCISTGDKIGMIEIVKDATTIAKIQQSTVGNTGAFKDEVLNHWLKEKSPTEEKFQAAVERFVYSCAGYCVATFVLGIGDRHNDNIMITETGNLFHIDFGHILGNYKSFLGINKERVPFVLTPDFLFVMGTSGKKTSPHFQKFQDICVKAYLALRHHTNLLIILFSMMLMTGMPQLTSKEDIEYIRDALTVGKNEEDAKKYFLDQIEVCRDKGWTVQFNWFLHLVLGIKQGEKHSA
Chain of α isoform of human Class I PI3 kinases (P42336 whole entry, canonical isoform): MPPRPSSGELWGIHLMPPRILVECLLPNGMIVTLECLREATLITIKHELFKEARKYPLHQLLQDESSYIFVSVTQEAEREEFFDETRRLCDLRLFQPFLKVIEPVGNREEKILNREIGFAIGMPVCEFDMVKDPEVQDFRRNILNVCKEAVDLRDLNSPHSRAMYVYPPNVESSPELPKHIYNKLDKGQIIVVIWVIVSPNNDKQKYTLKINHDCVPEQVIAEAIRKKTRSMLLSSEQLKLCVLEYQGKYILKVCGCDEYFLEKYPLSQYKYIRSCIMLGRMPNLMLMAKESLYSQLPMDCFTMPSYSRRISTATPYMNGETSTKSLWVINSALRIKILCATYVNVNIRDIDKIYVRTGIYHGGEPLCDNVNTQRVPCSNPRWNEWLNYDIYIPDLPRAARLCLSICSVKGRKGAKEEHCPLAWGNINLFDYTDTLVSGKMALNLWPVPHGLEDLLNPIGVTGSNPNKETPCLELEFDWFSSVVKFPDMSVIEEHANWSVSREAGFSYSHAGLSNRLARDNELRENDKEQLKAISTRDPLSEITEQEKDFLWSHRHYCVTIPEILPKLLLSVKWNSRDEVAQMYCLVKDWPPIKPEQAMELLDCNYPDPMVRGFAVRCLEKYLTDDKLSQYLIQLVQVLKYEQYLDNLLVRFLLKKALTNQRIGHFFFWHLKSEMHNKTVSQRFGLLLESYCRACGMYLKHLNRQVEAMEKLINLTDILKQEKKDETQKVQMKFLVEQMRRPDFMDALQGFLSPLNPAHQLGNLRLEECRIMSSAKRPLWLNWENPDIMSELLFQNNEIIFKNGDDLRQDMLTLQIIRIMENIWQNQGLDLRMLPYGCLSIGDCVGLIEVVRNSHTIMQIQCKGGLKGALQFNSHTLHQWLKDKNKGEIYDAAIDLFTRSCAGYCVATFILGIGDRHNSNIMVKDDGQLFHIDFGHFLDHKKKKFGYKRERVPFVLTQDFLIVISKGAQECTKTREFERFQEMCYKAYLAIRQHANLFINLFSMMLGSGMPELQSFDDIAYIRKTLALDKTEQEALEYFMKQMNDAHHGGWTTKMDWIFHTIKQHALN
Chain of α isoform of human Class I PI3 kinases (P27986 whole entry partner, canonical isoform): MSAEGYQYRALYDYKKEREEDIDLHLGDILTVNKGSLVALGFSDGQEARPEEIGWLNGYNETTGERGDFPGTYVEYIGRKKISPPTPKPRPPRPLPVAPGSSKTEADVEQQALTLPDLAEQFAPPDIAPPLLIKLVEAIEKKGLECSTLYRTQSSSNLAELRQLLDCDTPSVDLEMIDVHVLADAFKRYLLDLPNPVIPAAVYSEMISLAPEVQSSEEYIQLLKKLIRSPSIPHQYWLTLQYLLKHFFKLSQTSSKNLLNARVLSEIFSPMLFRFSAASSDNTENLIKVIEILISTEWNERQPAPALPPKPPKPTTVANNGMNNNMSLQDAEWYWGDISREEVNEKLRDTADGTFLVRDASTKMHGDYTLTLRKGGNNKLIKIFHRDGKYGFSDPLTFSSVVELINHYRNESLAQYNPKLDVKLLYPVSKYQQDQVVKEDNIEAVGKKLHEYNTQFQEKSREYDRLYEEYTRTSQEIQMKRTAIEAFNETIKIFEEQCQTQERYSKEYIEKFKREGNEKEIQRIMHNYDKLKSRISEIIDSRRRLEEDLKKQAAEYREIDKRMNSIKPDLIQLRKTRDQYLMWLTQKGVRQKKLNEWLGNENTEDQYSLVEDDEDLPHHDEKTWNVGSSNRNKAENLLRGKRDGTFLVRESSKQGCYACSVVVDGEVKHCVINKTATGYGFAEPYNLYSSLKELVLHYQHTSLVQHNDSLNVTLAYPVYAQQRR
Chain of δ isoform of human Class I PI3 kinases (O00329 whole entry, canonical isoform): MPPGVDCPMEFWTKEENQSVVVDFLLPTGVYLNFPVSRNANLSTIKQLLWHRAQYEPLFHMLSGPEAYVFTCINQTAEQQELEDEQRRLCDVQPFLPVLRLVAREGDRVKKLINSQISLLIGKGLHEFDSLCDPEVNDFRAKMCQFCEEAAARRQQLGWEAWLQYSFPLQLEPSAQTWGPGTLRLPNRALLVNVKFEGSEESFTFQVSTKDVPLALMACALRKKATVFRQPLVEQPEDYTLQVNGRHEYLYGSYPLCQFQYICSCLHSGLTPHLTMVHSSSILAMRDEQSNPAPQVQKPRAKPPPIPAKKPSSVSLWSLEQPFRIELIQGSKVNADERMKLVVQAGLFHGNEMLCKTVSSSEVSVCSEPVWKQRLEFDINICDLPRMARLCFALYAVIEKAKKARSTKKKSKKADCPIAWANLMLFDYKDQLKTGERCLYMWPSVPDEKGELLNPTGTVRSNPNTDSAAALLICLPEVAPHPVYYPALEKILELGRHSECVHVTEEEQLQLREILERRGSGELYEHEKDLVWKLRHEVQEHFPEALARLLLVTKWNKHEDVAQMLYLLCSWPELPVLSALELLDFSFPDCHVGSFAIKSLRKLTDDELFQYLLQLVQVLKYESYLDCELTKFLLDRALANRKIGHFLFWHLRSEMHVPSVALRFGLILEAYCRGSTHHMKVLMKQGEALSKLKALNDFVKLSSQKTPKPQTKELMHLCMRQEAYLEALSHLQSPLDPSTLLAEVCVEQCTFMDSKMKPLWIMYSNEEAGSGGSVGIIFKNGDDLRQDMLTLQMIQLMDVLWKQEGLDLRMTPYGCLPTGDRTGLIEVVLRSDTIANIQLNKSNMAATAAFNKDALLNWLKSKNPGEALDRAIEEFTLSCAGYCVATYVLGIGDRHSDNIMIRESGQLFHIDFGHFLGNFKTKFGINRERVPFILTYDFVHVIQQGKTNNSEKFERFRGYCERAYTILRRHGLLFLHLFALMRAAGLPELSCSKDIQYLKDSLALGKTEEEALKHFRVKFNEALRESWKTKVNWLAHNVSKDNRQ
Chain of δ isoform of human Class I PI3 kinases (P27986 whole entry partner, canonical isoform): as the sequence (P27986 whole entry partner, canonical isoform) above

Row | SMILES | RAJI δ/Raw264.7 γ IC50 (selectivity) (PI3K-γ) | PI3K δ/PI3K γ IC50 (selectivity) [1] | further results
1 | C[C@H](NC(=O)c1c(N)nn2cccnc12)c1cc2cccc(NC(=O)c3cnn(C)c3)c2c(=O)n1-c1ccccc1 [Compound 90] | X (X = 10 to <50) | W (W = >1 to <10) | –
2 | C/C=C/c1cccc2cc([C@H](C)NC(=O)c3c(N)nn4cccnc34)n(-c3ccccc3)c(=O)c12 [Compound 70] | – | X (X = 10 to <50) | –
3 | CO[C@H]1C[C@@H]2CC[C@@H](C)[C@@](O)(O2)C(=O)C(=O)N2CCCC[C@H]2C(=O)O[C@H]([C@H](C)C[C@@H]2CC[C@@H](O)[C@H](OC)C2)CC(=O)[C@H](C)/C=C(\C)[C@@H](O)[C@@H](OC)C(=O)[C@H](C)C[C@H](C)/C=C/C=C/C=C/1C [rapamycin] | – | – | anti-CD3 mediated phosphorylation of Akt-S473 (PI3K/Akt/mTOR signaling): enhances; anti-CD3 mediated phosphorylation of S6 (PI3K/Akt/mTOR signaling): inhibits
4 | C[C@H](NC(=O)c1c(N)nn2cccnc12)c1cc2cccc(C#CC3CNC3)c2c(=O)n1-c1ccccc1 [Compound 74] | W (W = >1 to <10) | W (W = >1 to <10) | –
5 | Cc1c(C#Cc2cccc3nc([C@H](C)NC(=O)c4c(N)nn5cccnc45)n(-c4ccccc4)c(=O)c23)cnn1C [Compound 88, (S)-2-amino-N-(1-(5-((1,5-dimethyl-1H-pyrazol-4-yl)ethynyl)-4-oxo-3-phenyl-3,4-dihydroquinazolin-2-yl)ethyl)pyrazolo[1,5-a]pyrimidine-3-carboxamide] | Y (Y = 50 to <850) | X (X = 10 to <50) | –
6 | CC(=O)N1CCC(C#Cc2cccc3cc([C@H](C)NC(=O)c4c(N)nn5cccnc45)n(-c4ccccc4)c(=O)c23)CC1 [Compound 82] | X (X = 10 to <50) | X (X = 10 to <50) | –
7 | C[C@H](NC(=O)c1c(N)nn2cccnc12)c1cc2cccc(C#Cc3cn[nH]c3)c2c(=O)n1-c1ccccc1 [Compound 80] | Y (Y = 50 to <850) | Y (Y = 50 to <850) | –
8 | C[C@H](NC(=O)c1c(N)nn2cccnc12)c1cc2cccc(C#Cc3ccn[nH]3)c2c(=O)n1-c1ccccc1 [Compound 43] | X (X = 10 to <50) | Y (Y = 50 to <850) | IC50 [2]: 5 to 10 µM; IC50 [3]: 5 to 10 µM; IC50 ([1]; read-out: PI3K γ IC50): 0.1 to 0.5 µM; IC50 [4]: 5 to 10 µM
9 | C[C@H](NC(=O)c1c(N)nn2cccnc12)c1cc2cccc(C#CC=O)c2c(=O)n1-c1ccccc1 [Compound 36] | W (W = >1 to <10) | X (X = 10 to <50) | –
10 | C[C@H](NC(=O)c1c(N)nn2cccnc12)c1cc2cccc(C#CC3CCN(S(C)(=O)=O)CC3)c2c(=O)n1-c1ccccc1 [Compound 83] | X (X = 10 to <50) | X (X = 10 to <50) | –
